Reference: PMC6934184, “Selective DNA-PKcs inhibition extends the therapeutic index of localized radiotherapy and chemotherapy” (The Journal of Clinical Investigation, 2019)

Target: T1, CLK3 (Homo sapiens, UniProt P49761)
T1 construct: purchased Thermo Fisher Scientific (Life Technologies) SelectScreen
Assay: SelectScreen Z'LYTE
Type: biochemical
How it was run: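 SelectScreen broad panel; activity (Z'LYTE, Adapta) plus binding formats. ATP: Km app for CSF1R Z'LYTE; 10 for CAMK1 Adapta. Readout = % per kinase.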

T1 sequence (P49761 whole entry): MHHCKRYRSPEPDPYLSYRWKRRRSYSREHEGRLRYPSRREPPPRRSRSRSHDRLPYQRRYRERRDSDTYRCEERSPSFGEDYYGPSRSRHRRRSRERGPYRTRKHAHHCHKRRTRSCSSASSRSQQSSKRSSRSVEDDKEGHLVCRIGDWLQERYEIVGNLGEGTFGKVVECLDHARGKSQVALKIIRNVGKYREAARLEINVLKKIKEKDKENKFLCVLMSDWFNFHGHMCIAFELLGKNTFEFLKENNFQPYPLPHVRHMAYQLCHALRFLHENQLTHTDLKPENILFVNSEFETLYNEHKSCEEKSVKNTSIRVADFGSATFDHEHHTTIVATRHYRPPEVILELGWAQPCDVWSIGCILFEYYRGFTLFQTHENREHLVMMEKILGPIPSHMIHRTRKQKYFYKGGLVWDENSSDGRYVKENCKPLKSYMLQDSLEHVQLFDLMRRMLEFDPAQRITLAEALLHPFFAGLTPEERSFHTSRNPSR

Question: For `CN(C(=O)CN1CCOCC1)c1ccc2sc3c(-c4cccc5c(=O)cc(N6CC7CCC(C6)O7)oc45)cccc3c2c1` [NU5455], which inhibition at 1 µM is on record?
Answer: -0.5%
